Peptide text beside a SMILES is read from it. * marks the point of attachment. Cbz = O=C(OCc1ccccc1)*; CH2F = FC*
Experiments:
HCT116 cells [1] = assay: Cell death profiling by quantitative flow imaging of co-cultured irradiated and non-irradiated cells; assay type: cell-based, human; conditions: 4 grays, 24 hour co-culture; for Engulfment of neighboring cells by gamma-irradiated CMFDA+ cells (cell-in-cell internalization): Y27632 30 μM; for Engulfment of neighboring cells by gamma-irradiated CMFDA+ cells (cell-in-cell internalization) / Exposure of PS on the outer plasma membrane of irradiated CMFDA+ cells: Z-VAD-fmk 100 μM; for Exposure of PS on the outer plasma membrane of irradiated CMFDA+ cells: Roscovitine 10 μM
Description: Untreated HCT116 cells were labeled with CMFDA (green fluorescence, CMFDA^+) or CMTMR, (red fluorescence, CMTMR^+) and treated HCT116 cells with CMFDA (green fluorescence, CMFDA^+). The following cell mixtures were performed: untreated CMTMR^+ HCT116 cells were mixed with untreated CMFDA^+ HCT116 cells, or untreated CMTMR^+ HCT116 cells were mixed with treated CMFDA^+ HCT116 cells. Then, cells were co-cultured during 24 hours in the presence or absence of the pharmacological inhibitor of ROCK, Y27632 (30 μM), the pan-caspase inhibitor, Z-VAD-fmk (ZVAD, 100 μM), the inhibitor of caspase-1, Ac-YVAD-cmk (YVAD, 100 μM), the necroptosis inhibitor, Necrostatin-1 (NEC 1, 30 μM), the inhibitor of the vacuolar type H(+)-ATPase (V-ATPase) inhibiting autophagy, Bafilomycin A1 (BafA1, 50 nM), the inhibitor of Cdks with an anti-mitotic activity, Roscovitine (Rosco, 10 μM). After 24 hours of co-culture, both detached and adherent cells were collected and stained with Hoechst 33345 ([…]) during 1 hour at 37° C. in warmed complete medium. To detect phosphatidylserine (PS) exposure and plasma membrane permeability, labeled HCT116 cells were successively incubated with Biotin-AnnexinV (BD Pharmingen) as recommended by manufacturer, […] BV786-Streptavidin (BD Biosciences) and […] DRAQ7 (BioStatus) during 15 minutes at 25° C. After washing with PBS solution, samples were immediately analyzed using an imaging flow cytometer FlowSight® (Amnis®, part of EMD Millipore). Data were acquired at a 20× magnification, using INSPIRE software. The 405 nm, 488 nm, and 561 nm lasers were used for excitation. Brightfield, Annexin V-BV786, DRAQ7, CMFDA, CMTMR and Hoechst 33345 stainings were detected using respectively channels for 420-480 nm, 745-800 nm, 642-745 nm, 480-560 nm, 595-642 nm and 430-505 nm. At least 1000 events of cells per sample were analyzed. Additional single-labeled controls were prepared to normalize fluorescent signal across different channels. Acquired data were analyzed using the IDEAS analysis software (v6.1; Merck-Millipore). Gating strategy was the following. Cells were gated for focused cells using the Gradient RMS feature. Cells were gated for single cells using the aspect ratio and area features. For the cannibalism detection, cells were gated in the double positive CMFDA^+ and CMTMR^+ staining.
To detect PS exposure, plasma membrane permeability and cell cycle progression, cells were after co-culture sequentially labeled with specific fluorescent probes (such as FITC-conjugated AnnexinV, propidium iodide, and Hoechst 33342) and analyzed by flow cytometry. Both detached and adherent cells were collected and stained with Hoechst 33345 (10 ug/ml) during 1 hour at 37° C. in warmed complete medium. After washing with PBS, HCT116 cells were suspended in 1X binding buffer supplemented with fluorescein isothiocyanate (FITC)-conjugated Annexin V (BD Biosciences) and propidium iodide (PI, 1 μg/mL) (Sigma), as per manufacturer's instructions. Samples were then analyzed using LSRII flow cytometer (Becton Dickinson) and the FlowJo software v10. For confocal fluorescence microscopy, HCT116 cells were fixed after co-culture in 3,7% paraformaldehyde-PBS for 15 minutes and counterstained with 1 μg/mL Hoechst 33342 (Invitrogen) for 15 minutes. Then, cells were analyzed by confocal SPE microscope equipped with Apochromat 63×1.3 NA and 63×1.15 NA oil immersion objectives. The Leica Application Suite (LAS) software was used (Leica Microsystems).
Considering the diversity of lethal stimuli that can potentially initiate both non-cell autonomous and cell autonomous cell death modalities and the complexity of signaling pathways (involving (or not) caspases, cathepsins or granzymes) that control both processes, it was decided to simultaneously detect non-cell autonomous and cell autonomous death modalities elicited by IR. […]

HCT116 cells [2] = assay: Screening for enhancers of IR-mediated cellular cannibalism (imaging flow cytometry, confocal microscopy validation); assay type: cell-based, human; conditions: 8 Gray, 10 μM compound, 24 hours of culture
Description: FIG. 4 Identification of cannibalism modulators triggered by ionizing radiation. Compounds from the Prestwick (A) and CEA (F) libraries were tested for their capacities to induce cellular cannibalism after ionizing radiation. Cannibal cells were detected after homotypic cultures of 8 gray γ-irradiation HCT116 cells in the presence or absence of […] of the Prestwick (A) and CEA […] library compounds. Each dot represents one compound. Representative images are shown in (B, G). (C, H) HCT116 cells were treated with the indicated drugs. After 24 h of treatment, cell death was monitored by staining with 3,3 dihexyloxacarbocyanine iodide (DiOC6(3)) and PI, and the percentage of dying (DiOC6(3)^low PI^−, open bars) and dead (DiOC6(3)^low PI^+, closed bars) cells was determined by cytofluorometry. Validation of the cannibalism inducers by fluorescent microscopy. Representative images (D, I) and quantification (E, J) are shown. Results are means±s.e.m. of triplicate determinations.
Then, the screening of a library of chemical compounds was developed in order to identify compounds able to induce IR-mediated cellular cannibalism. Thus, HCT116 cells that have been treated with a radiation dose of 8 Gray were stained either with orange CMTMR cell tracker or green CMFDA cell tracker and cultivated in presence of 10 μM of chemical compounds. After 24 hours of culture, cells have been stained with nuclear dye (5 μg/ml of Hoechst 33342 during 1 h at 37° C.) and analyzed using the FlowSight® Imaging Flow Cytometer for cellular cannibalism. Each of these compounds were classified according to their Z-score^47 and identified respectively 13 and 11 candidate compounds (FIGS. 4A, 4B, 4F and 4G). Then, the identified compounds were validated by combining flow cytometry approaches (in order to eliminate cytotoxic compounds by simultaneously monitoring the depolarization of the internal mitochondrial membrane and the plasma membrane permeability of the treated cells) with confocal microscopy approaches (to confirm the modulation of IR-induced cellular cannibalism by candidate compounds) (FIGS. 4C-E and 4H-J). […] Finally, 16 chemical compounds that are able to enhance the capacity of IR to trigger cellular cannibalism were identified (FIGS. 4E and 4J, Tables 1&2).

MCA205 cells [3] = assay: Cell death monitoring by DiOC6(3)/PI staining; assay type: cell-based, mouse
Description: (§1) FIG. 5. Identification of cannibalism modulators as immunogenic cell death inducers. MCA205 (A) or CT26 (E, I, M, Q) cells were treated with the indicated drugs. After 24 h of coculture with the indicated treatment, cell death was monitored by staining DiOC6(3) and PI, and the percentage of dying (DiOC6(3)^low PI^−, open bars) and dead (DiOC6(3)^low PI^+, closed bars) cells was determined by cytofluorometry. (B-D) MCA205 cells or (F-H, J-L, N-P, R-T) CT26 cells cocultured after x irradiation with the indicated compounds were inoculated subcutaneously into the right flank of […] or BALB/c mice, respectively. Seven days later, the mice were rechallenged with live cells injected into the opposite flank, and tumor growth was monitored (five mice per group).
(§2) Considering that immunogenic cell death (ICD) inducers were identified (such as Digoxin, Digitoxin, Lanatoside C or Doxorubicin hydrochloride)^3, 4, 48-51) as IRCCE, the ability of these compounds to induce an antitumor immunity after radiotherapy was evaluated. […] Tumors were evaluated weekly using a common caliper. […] One week later, 5×10^5 untreated control cells were inoculated into the contralateral flank of mice and tumors were evaluated weekly using a common caliper. […] The percentage of dying cells in each condition was evaluated by determining with DiOC(6)3/IP staining (FIGS. 5E, 5I, 5M and 5Q). […]

MCA205 cells [4] = assay: Anti-tumor vaccination assay, treated MCA205 cells inoculated into C57BL/6 mice and rechallenge; assay type: in vivo, mouse
Description: as §1, §2

CT26 cells = assay: Anti-tumor vaccination assay, treated CT26 cells inoculated into BALB/c mice and rechallenge; assay type: in vivo, mouse; conditions: 8 Gy in presence of 10 μM compound for 24 hours
Description: as §1
FIG. 6. Tumor vaccination experiments. CT26 cells were treated for 24 hours with 10 μM VP331 (A, F, K), 10 μM Minaprine (B, G, L), 10 μM Lopa87 (C, H, M), 10 μM SG6163F (D, I, N), 10 μM Azaguanine-8 (8-aza) (E, J, O) alone or combined with 8 Gy ionizing radiation and inoculated (s.c.) into immunocompetent BALB/c mice, which were rechallenged at the opposite flank 7 days later with the same cancer cells. The percentage of tumor-free mice was evaluated three times a week for the following 38 days. Percentage of total tumor free mice (A-E), tumor free-mice at the first injection site (F to J, P) or at the second injection site (K to O, Q) are shown. (*P<0.05, **P<0.01, ***P<0.001, two-way ANOVA).
Considering that immunogenic cell death (ICD) inducers were identified (such as Digoxin, Digitoxin, Lanatoside C or Doxorubicin hydrochloride)^3, 4, 48-51) as IRCCE, the ability of these compounds to induce an antitumor immunity after radiotherapy was evaluated. First, a preclinical approaches was developed to study the immunological effects of IRCCE on two mouse models of carcinoma (colon CT26 carcinoma and fibrosarcoma MCA205). Initially, the ability of the combination of IRCCE+IR to trigger a specific anti-tumor immune response was appreciated using immunocompetent mice through anti-tumor vaccination assays. According to previously published studies^52, the injection of cancer cells succumbing to an immunogenic cell death (ICD) into immunocompetent mice must elicit a protective immune response that is specific for tumor antigens. Thus, 3×10^5 MCA205 cells were first treated with 10 μM of SG6163F for 24 hours. Then, treated cells were inoculated subcutaneously in 200 μl PBS into the lower flank of 8-week-old female C57BL/6 mice. One week later, 3×10^4 untreated control cells were inoculated into the contralateral flank of mice. Tumors were evaluated weekly using a common caliper. Animals bearing tumors that exceeded 20-25% body mass were euthanatized. […] Then, 3×10^6 CT26 cells were irradiated with 8 Gy in presence of 10 μM of SG6163F (FIGS. 5E and 5F), VP331 (FIGS. 5I and 5J), Minaprine dihydrochloride (FIGS. 5M and 5N) or LOPA87 (FIGS. 5Q and 5R) for 24 hours. Then, cells were inoculated as previously described subcutaneously in 200 μl PBS into the lower flank of 8-week-old female BALB/c mice. One week later, 5×10^5 untreated control cells were inoculated into the contralateral flank of mice and tumors were evaluated weekly using a common caliper. As previously mentioned, animals bearing tumors that exceeded 20-25% body mass were euthanatized. The percentage of dying cells in each condition was evaluated by determining with DiOC(6)3/IP staining (FIGS. 5E, 5I, 5M and 5Q). Finally, the ability of these compounds to repress the growth of cancer cells that have been injected 7 days after injection of irradiated and treated cancer cells was appreciated.
A second anti-tumor vaccination assay was done on CT26 mouse models of carcinoma as previously described. […]

CO/C1=C\C(C)=C\[C@@H](C)[C@@H](O)[C@@H](C)C/C(C)=C/C=C/[C@H](OC)[C@@H]([C@@H](C)[C@@H](O)[C@H](C)[C@@]2(O)C[C@@H](O)[C@H](C)[C@@H](C(C)C)O2)OC1=O [bafilomycin A1, Bafilomycin A1]
Frequency of dying cells (AnnexinV+DRAQ7- and DRAQ7+ cells) (HCT116 cells [1]; total, non-irradiated CMTMR+ and irradiated CMFDA+ cells, BafA1 50 nM): increased the frequency of dying cells

COC(=O)CC(NC(=O)C(C)NC(=O)C(NC(=O)OCc1ccccc1)C(C)C)C(=O)CF (stereo not drawn) [Z-VAD-fmk, Benzyloxycarbonyl-Val-Ala-Asp(OMe)-fluoromethylketone] (Cbz-Val-Ala-Asp(OMe)-CH2F; configuration not given here)
Engulfment of neighboring cells by gamma-irradiated CMFDA+ cells (cell-in-cell internalization) (HCT116 cells [1]): not affected | Exposure of PS on the outer plasma membrane of irradiated CMFDA+ cells (HCT116 cells [1]): inhibited the exposure of PS | Cellular degradation of engulfed CMTMR+ cells (HCT116 cells [1]; inhibitors 100 μM): significantly reduced

C[C@@H](N)[C@H]1CC[C@H](C(=O)Nc2ccncc2)CC1 [Y27632]
Engulfment of neighboring cells by gamma-irradiated CMFDA+ cells (cell-in-cell internalization) (HCT116 cells [1]): repressed

O=C1NC(c2ccccc2)=N/C1=C\c1cc2ccccc2c2ccccc12 [SG6163F]
Enhancement of IR-mediated cellular cannibalism (IRCCE) (HCT116 cells [2]): efficient cellular cannibalism enhancer | Increase of cell death in vitro (MCA205 cells [3]; 10 μM compound alone, 24 hours): not able to induce a significant increase of cell death | Increase of death of treated and irradiated cells (MCA205 cells [3]; 8 Gy of IR and 10 μM compound): absence of a significant increase of death | Protective response after inoculation of untreated cells (MCA205 cells [4]; MCA205 cells treated with 10 μM compound alone, rechallenge one week later): did not exhibit a protective response | Mice with protective response (MCA205 cells [4]; MCA205 cells treated with 8 Gy of IR and 10 μM compound): 3 of 5 | Frequency of mice showing a protective response (CT26 cells; first assay: CT26 cells, rechallenge one week later): significant increase in the frequency of mice showing a protective response | Frequency of mice showing a protective response (CT26 cells; second assay: CT26 cells, rechallenge 7 days later): Significant increases in the frequency of mice showing a protective response

CC[C@H](CO)Nc1nc(NCc2ccccc2)c2ncn(C(C)C)c2n1 [roscovitine, Roscovitine]
Exposure of PS on the outer plasma membrane of irradiated CMFDA+ cells (HCT116 cells [1]): inhibited the exposure of PS

From US11471463B2, “Enhancers of cellular cannibalism for use to sensitize tumors to radiation therapy” (Institut Gustave-Roussy, priority 2017, dated 2022)
